Assay results taken from patent publication EP0297523A2, “Process for the preparation of elaiophyline and the use thereof” (HOECHST AKTIENGESELLSCHAFT, priority 1987, dated 1989).

Experiments:
Haemonchus contortus = assay: Anthelmintic effect in artificially infected lambs (abomasal nematodes), coproscopy and necropsy; assay type: in vivo; conditions: up to 14 days after application
Experimental: (§1) Die anthelminthische Wirkung vom Elaiophylin wurde an Lämmern mit 30 - 40 kg Körpergewicht untersucht. Dazu wurden die Lämmer artifiziell mit Infektionsstadien von Labmagen- (Haemonchus contortus) und Dünndarm-(Trichostrongylus colubriformis) Nematoden infiziert. Nach Abschluß der Entwicklungszeit (Präpatenzperiode) der Nematoden erfolgte die Applikation von Elaiophylin in Dosierungen von 2,5, 5,0 und 10,0 mg/kg (p.o.) bzw. 2,5 mg/kg (subcutan).
(§2) Durch koproskopische Untersuchungen vor und bis zu 14 Tagen nach der Applikation des Elaiophylins und anschließende Sektion mit helminthologischer Aufarbeitung wurde die prozentuale Reduktion der Schaf-Nematoden ermittelt (s. Tab. 1). Tabelle 1

[1] = tested on: Trichostrongylus colubriformis; assay: Anthelmintic effect in artificially infected lambs (small intestine nematodes), coproscopy and necropsy; assay type: in vivo; conditions: up to 14 days after application
Experimental: as §1, §2

CC[C@@H]1[C@@H](C)O[C@@](O)([C@@H](C)[C@H](O)[C@H](C)[C@H]2OC(=O)/C=C/C=C/[C@H](C)[C@@H]([C@@H](C)[C@@H](O)[C@H](C)[C@@]3(O)C[C@@H](O[C@H]4C[C@H](O)[C@H](O)[C@H](C)O4)[C@H](CC)[C@@H](C)O3)OC(=O)/C=C/C=C/[C@@H]2C)C[C@H]1O[C@H]1C[C@H](O)[C@H](O)[C@H](C)O1 [Elaiophylin]
proz. Reduktion der Nematoden H. contortus (Haemonchus contortus; lambs 30 - 40 kg, 2,5 mg p.o.): 44,6%
proz. Reduktion der Nematoden H. contortus (Haemonchus contortus; lambs 30 - 40 kg, 2,5 mg s.c.): 46,5%
proz. Reduktion der Nematoden H. contortus (Haemonchus contortus; lambs 30 - 40 kg, 5,0 mg p.o.): 89,3%
proz. Reduktion der Nematoden H. contortus (Haemonchus contortus; lambs 30 - 40 kg, 10,0 mg p.o.): 85,0%
proz. Reduktion der Nematoden T. colubriformis ([1]; lambs 30 - 40 kg, 2,5 mg p.o.): 28,4%
proz. Reduktion der Nematoden T. colubriformis ([1]; lambs 30 - 40 kg, 2,5 mg s.c.): 35,1%
proz. Reduktion der Nematoden T. colubriformis ([1]; lambs 30 - 40 kg, 5,0 mg p.o.): 73,8%
proz. Reduktion der Nematoden T. colubriformis ([1]; lambs 30 - 40 kg, 10,0 mg p.o.): 73,8%
